Patent US7517894B2, “VEGFR-2 and VEGFR-3 inhibitory anthranilamide pyridines” (Bayer Schering Pharma AG, priority 2003, dated 2009)

Experiments:
[1] = target: T1, human cytochrome P 450 isoenzyme (3A4) (Homo sapiens, UniProt P08684); assay: Cytochrome P450 inhibition (Crespi et al.); assay type: in vitro ADME; conditions: baculovirus/insect cell-expressed human isoenzyme 3A4
T1 construct: host or cells: baculovirus/insect cells
Protocol: The cytochrome P450 inhibition was performed according to the publication of Crespi et al. (Anal. Biochem., 248, 188-190 (1997)) with use of baculovirus/insect cell-expressed, human cytochrome P 450 isoenzyme (3A4).

VEGFR II (KDR) = VEGFR II (KDR) (Homo sapiens, UniProt P35968); assay: Inhibition of the KDR kinase activity (33P-ATP, poly-(Glu4Tyr) phosphocellulose filter assay); assay type: biochemical; conditions: 10 minutes at room temperature; phosphate incorporation into poly-(Glu4Tyr)
Chain of VEGFR II (KDR) (P35968 20-1356): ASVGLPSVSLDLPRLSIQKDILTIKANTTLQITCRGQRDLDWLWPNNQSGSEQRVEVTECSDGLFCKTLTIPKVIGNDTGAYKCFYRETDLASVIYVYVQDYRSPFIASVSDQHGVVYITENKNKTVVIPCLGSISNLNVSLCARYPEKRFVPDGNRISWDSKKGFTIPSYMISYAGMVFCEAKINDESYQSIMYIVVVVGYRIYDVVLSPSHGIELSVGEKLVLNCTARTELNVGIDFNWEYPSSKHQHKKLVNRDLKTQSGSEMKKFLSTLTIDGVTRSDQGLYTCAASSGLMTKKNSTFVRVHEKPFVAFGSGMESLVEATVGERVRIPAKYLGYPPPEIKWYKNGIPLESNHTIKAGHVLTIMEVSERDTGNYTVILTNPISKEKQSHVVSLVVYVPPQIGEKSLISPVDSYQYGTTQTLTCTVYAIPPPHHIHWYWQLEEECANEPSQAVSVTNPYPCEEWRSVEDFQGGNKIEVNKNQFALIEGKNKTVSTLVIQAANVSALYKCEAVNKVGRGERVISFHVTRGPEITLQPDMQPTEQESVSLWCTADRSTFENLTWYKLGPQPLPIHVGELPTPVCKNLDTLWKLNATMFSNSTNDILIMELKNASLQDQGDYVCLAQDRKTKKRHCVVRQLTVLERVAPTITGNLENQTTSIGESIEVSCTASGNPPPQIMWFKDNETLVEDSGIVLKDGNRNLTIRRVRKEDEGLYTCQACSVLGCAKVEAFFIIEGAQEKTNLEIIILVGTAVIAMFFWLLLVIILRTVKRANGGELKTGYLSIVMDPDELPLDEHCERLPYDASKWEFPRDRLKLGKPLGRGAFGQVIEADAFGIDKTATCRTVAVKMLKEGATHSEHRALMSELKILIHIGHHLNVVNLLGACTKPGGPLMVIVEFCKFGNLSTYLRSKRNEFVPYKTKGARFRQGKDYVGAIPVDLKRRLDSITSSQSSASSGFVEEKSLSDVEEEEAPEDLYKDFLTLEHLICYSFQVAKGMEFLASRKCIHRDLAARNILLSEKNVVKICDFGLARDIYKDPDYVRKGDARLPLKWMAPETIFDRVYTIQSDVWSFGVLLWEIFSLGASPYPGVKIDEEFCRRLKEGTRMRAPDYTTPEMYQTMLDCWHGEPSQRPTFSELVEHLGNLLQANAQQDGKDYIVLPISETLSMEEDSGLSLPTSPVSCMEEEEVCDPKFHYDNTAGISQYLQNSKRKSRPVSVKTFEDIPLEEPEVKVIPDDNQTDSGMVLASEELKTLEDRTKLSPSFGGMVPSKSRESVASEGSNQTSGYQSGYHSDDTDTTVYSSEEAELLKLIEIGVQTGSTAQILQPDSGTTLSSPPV
Protocol: • Stock solution A: 3 mmol of ATP in water, pH 7.0 (−70° C.) • Stock solution B: g-33P-ATP 1 mCi/100 μl • Stock solution C: poly-(Glu4Tyr) 10 mg/ml in water Solution for Dilutions • Substrate solvent: 10 mmol of DTT, 10 mmol of manganese chloride, 100 mmol of magnesium chloride • Enzyme solution: 120 mmol of tris/HCl, pH 7.5, 10 μM of sodium vanadium oxide Sample Application 1
In a microtiter plate (without protein binding) that tapers to a point, 10 μl of substrate mix (10 μl of volume of ATP stock solution A+25 μCi of g-33P-ATP (about 2.5 μl of stock solution B)+30 μl of poly-(Glu4Tyr) stock solution C+1.21 ml of substrate solvent), 10 μl of inhibitor solution (substances corresponding to the dilutions, 3% DMSO in substrate solvent as a control) and 10 μl of enzyme solution (11.25 μg of enzyme stock solution (KDR or FLT-1 kinase) are added at 4° C. in 1.25 ml of enzyme solution (dilute). It is thoroughly mixed and incubated for 10 minutes at room temperature. Then, 10 μl of stop solution (250 mmol of EDTA, pH 7.0) is added, mixed, and 10 μl of the solution is transferred to a P 81 phosphocellulose filter. Then, it is washed several times in 0.1 M phosphoric acid. The filter paper is dried, coated with Meltilex and measured in a microbeta counter.
The IC50 values are determined from the inhibitor concentration, which is necessary to inhibit the phosphate incorporation to 50% of the uninhibited incorporation after removal of the blank reading (EDTA-stopped reaction).

T1 sequence (P08684 whole entry): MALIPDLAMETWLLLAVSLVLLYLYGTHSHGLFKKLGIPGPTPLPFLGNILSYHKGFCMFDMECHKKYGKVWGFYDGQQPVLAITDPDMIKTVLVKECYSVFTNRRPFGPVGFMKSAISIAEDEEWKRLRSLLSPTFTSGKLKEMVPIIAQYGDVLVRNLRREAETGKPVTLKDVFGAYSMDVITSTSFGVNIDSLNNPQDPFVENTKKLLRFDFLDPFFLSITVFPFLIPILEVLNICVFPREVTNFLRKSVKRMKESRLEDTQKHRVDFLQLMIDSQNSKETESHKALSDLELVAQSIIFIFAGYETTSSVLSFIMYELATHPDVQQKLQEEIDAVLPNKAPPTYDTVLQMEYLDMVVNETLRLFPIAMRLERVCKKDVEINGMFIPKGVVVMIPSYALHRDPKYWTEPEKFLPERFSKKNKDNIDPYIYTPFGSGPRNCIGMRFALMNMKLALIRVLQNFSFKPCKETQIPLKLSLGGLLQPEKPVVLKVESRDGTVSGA

Compound | IC50 [1] [nM] | IC50 (VEGFR II (KDR)) [nM] | melting point [°C]
O=C(Nc1cc2ccccc2cn1)c1ccccc1NCc1ccnc(N2CCOCC2)c1 [Example 1.14] | > 30000 | 52 | 
Nc1cc(CNc2ccccc2C(=O)Nc2cc3ccccc3cn2)ccn1 [Example 2.1, 2-[(2-Amino-pyridin-4-ylmethyl)-amino]-N-isoquinolin-3-yl-benzamide] |  |  | 202
Nc1cc(CNc2ccccc2C(=O)Nc2ccc3[nH]ncc3c2)ccn1 [Example 2.2, 2-[(2-Amino-pyridin-4-ylmethyl)-amino]-N-(1H-indazol-5-yl)-benzamide] |  |  | 200
CNC(=O)Nc1cc(CNc2ccccc2C(=O)Nc2cc3ccccc3cn2)ccn1 [Example 3.24] | 14000 | 12 | 
CN(C)C(=O)Nc1cc(CNc2ccccc2C(=O)Nc2cc3ccccc3cn2)ccn1 [Example 3.30, 2-{[2-(3,3-Dimethyl-ureido)-pyridin-4-ylmethyl]-amino}-N-(3-isoquinolinyl)-benzamide] | 5500 | 10 | 
CCOC(=O)Nc1cc(CNc2ccccc2C(=O)Nc2ccc3cn[nH]c3c2)ccn1 [Example 6.22] | 10000 | 24 | 
CC(=O)N(C)c1cc(CNc2ccccc2C(=O)Nc2cc3ccccc3cn2)ccn1 [Example 6.31, 2-{[2-(Acetyl-methyl-amino)-pyridin-4-ylmethyl]-amino}-N-isoquinolin-3-yl-benzamide] | 11000 | 65 | 71
O=C(Nc1cccc(C(F)(F)F)c1)c1ccccc1NCc1ccnc(N2C(=O)COCC2=O)c1 [Example 9.1, 2-{[2-(3,5-Dioxo-morpholin-4-yl)-pyridin-4-ylmethyl]-amino}-N-(3-trifluoromethyl-phenyl)-benzamide] |  |  | 201.9
